This test has as its system NCI-H358 (KRAS^G12C mutation) cell. The test is described as follows: Cell assay of antiproliferative activity against NCI-H358 cell (Celltiter-Glo, 5 days). It counts as cell-based. Particulars: 5 days incubation. The protocol:
Cell Assay of Antiproliferative Activity of Compounds Against NCI-H358 (KRAS^G12C Mutation) Cell.
40 μL phosphate buffer was added to the outer wells of the 384 microplate, and 40 μL cell suspension to be tested was added to the other wells. Then the microplate was incubated in a carbon dioxide incubator overnight.
The compounds to be tested were gradiently diluted, each compound was performed 10 concentration gradients (diluted from 50 μM to 0.003 μM) and added 100 nL to the corresponding wells in the microplate. After addition, 40 μl of phosphate buffer was added to each well in rows A and P and columns 1 and 24, and then the microplate was incubated in a carbon dioxide incubator for 5 days.
20 μL of Promega Celltiter-Glo reagent was added to each well of the microplate, and then the luminescence signal was stabilized by oscillating at room temperature for 10 min. Then PekinElmer Envision multi-label analyzer was used to read.
Finally, GraphPad Prism software was used to calculate the IC50 value of the compound and the fitting curve was drawn.
Anti-proliferative activity of the compounds of the present invention against NCI-H358 (KRAS^G12C mutation) cell was shown in Table 1.
(In ATP-based viability assays light output follows the ATP content of the culture.)

The IC50 is the concentration at which inhibition is half-maximal. Read a low IC50 as greater potency in that assay. As to `C=CC(=O)N1CCN(c2nc(=O)n(-c3ccccc3S(C)(=O)=O)c3nc(-c4c(O)cccc4F)c(F)cc23)C(CC#N)C1` (stereo not drawn) [Example 60, 2-(4-acryloyl-1-(6-fluoro-7-(2-fluoro-6-hydroxyphenyl)-1-(2-(methylsulfonyl)phenyl)-2-oxo-1,2-dihydropyridino [2,3-d]pyrimidin-4-yl)piperazin-2-yl) acetonitrile], the IC50 (Homo sapiens, NCI-H358, 120 h) is more than 10000 nM.
As for `C=CC(=O)N1CCN(c2nc(=O)n(-c3c(C(C)C)ccnc3S(C)(=O)=O)c3nc(-c4c(F)cccc4OC(C)=O)c(F)cc23)[C@@H](C)C1` [Example 24], the IC50 is 28 nM.
`C=CC(=O)N1C[C@H](C)N(c2nc(=O)n(-c3c(CC)cccc3S(C)(=O)=O)c3nc(-c4c(O)cccc4F)c(F)cc23)C[C@H]1C` [Example 12, 4-((2S,5R)-4-acryloyl-2,5-dimethylpiperazin-1-yl)-1-(2-ethyl-6-(methylsulfonyl)phenyl)-6-fluoro-7-(2-fluoro-6-hydroxyphenyl) pyridino [2,3-d] pyrimidin-2 (1H)-one] returned an IC50 (Homo sapiens, NCI-H358, 120 h) of 41 nM.
For `C=CC(=O)N1CCN(c2nc(=O)n(-c3c(C(C)C)cccc3S(C)(=O)=O)c3nc(-c4c(F)cccc4OC(C)=O)c(F)cc23)[C@@H](C)C1` (single isomer, unassigned) [Example 31B], the IC50 is 6 nM.
Still for that read-out and setting: the figure for `C=CC(=O)N1CCN(c2nc(=O)n(-c3c(C(C)C)cccc3S(C)(=O)=O)c3nc(-c4ccccc4Cl)c(F)cc23)[C@@H](C)C1` (single isomer, unassigned) [Example 30B] is 11 nM.
Molecule `C=CC(=O)N1CCN(c2nc(=O)n(-c3c(C(C)C)cccc3S(C)(=O)=O)c3nc(-c4cncn4C)c(F)cc23)[C@@H](C)C1` [Example 70, (S)-4-(4-acryloyl-2-methylpiperazin-1-yl)-6-fluoro-1-(2-isopropyl-6-(methylsulfonyl)phenyl)-7-(1-methyl-1H-imidazol-5-yl) pyridino [2,3-d] pyrimidin-2 (1H)-one] came in with an IC50 (Homo sapiens, NCI-H358, 120 h) of more than 10000 nM.
The same measure, in the same setting: the figure for `C=CC(=O)N1CCN(c2nc(=O)n(-c3c(C4CC4)cccc3S(C)(=O)=O)c3nc(-c4ccccc4Cl)c(F)cc23)[C@@H](C)C1` [Example 17, (S)-4-(4-acryloyl-2-methylpiperazin-1-yl)-7-(2-chlorophenyl)-1-(2-cyclopropyl-6-(methylsulfonyl)phenyl)-6-fluoropyridino [2,3-d] pyrimidin-2(1H)-one] is 31 nM; for `C=CC(=O)N1CCN(c2nc(=O)n(-c3c(C(C)C)cccc3S(C)(=O)=O)c3nc(-c4ccc[nH]c4=O)c(F)cc23)[C@@H](C)C1` [Example 71, (S)-4-(4-acryloyl-2-methylpiperazin-1-yl)-6-fluoro-1-(2-isopropyl-6-(methylsulfonyl)phenyl)-7-(2-oxo-1,2-dihydropyridin-3-yl) pyridino[2,3-d] pyrimidin-2 (1H)-one] it is more than 10000 nM.
In the case of `C=CC(=O)N1CCN(c2nc(=O)n(-c3c(C)cccc3S(C)(=O)=O)c3nc(-c4c(O)cccc4F)c(F)cc23)[C@@H](C)C1` (single isomer, unassigned) [Example 53B], the IC50 came to 66 nM.
On the same count and under the same terms, the figure for `C=CC(=O)N1CCN(c2nc(=O)n(-c3c(C4CCC4)cccc3S(C)(=O)=O)c3nc(-c4c(O)cccc4F)c(F)cc23)[C@@H](C)C1` [Example 25, 4-((S)-4-acryloyl-2-methylpiperazin-1-yl)-1-(2-cyclobutyl-6-(methylsulfonyl)phenyl)-6-fluoro-7-(2-fluoro-6-hydroxyphenyl) pyridino[2,3-d]pyrimidin-2(1H)-one] is 9 nM; for `C=CC(=O)N1C[C@H](C)N(c2nc(=O)n(-c3c(C4CC4)cccc3S(C)(=O)=O)c3nc(-c4c(O)cccc4F)c(F)cc23)C[C@H]1C` (single isomer, unassigned) [Example 81B] it is 9 nM; for `C=CC(=O)N1CCN(c2nc(=O)n(-c3cnccc3S(C)(=O)=O)c3nc(-c4c(O)cccc4F)c(F)cc23)[C@@H](C)C1` [Example 89] it is 1000 to 10000 nM.
`C=CC(=O)N1CCN(c2nc(=O)n(-c3c(C)ccnc3S(C)(=O)=O)c3nc(-c4c(O)cccc4F)c(F)cc23)[C@@H](C)C1` [Example 1, 4-((S)-4-acryloyl-2-methylpiperazin-1-yl)-6-fluoro-7-(2-fluoro-6-hydroxyphenyl)-1-(4-methyl-2-(methylsulfonyl)pyridin-3-yl) pyridino [2,3-d] pyrimidin-2 (1H)-one] gave an IC50 (Homo sapiens, NCI-H358, 120 h) of 90 nM.
For the molecule `C=CC(=O)N1CCN(c2nc(=O)n(-c3c(C)cccc3S(C)(=O)=O)c3nc(-c4c(O)cccc4F)c(F)cc23)CC1CC#N` (stereo not drawn) [Example 91, 2-(1-acryloyl-4-(6-fluoro-7-(2-fluoro-6-hydroxyphenyl)-1-(2-methyl-6-(methylsulfonyl)phenyl)-2-oxo-1,2-dihydropyridino [2,3-d]pyrimidin-4-yl)piperazin-2-yl) acetonitrile], the IC50 is 1000 to 10000 nM.
As for `C=CC(=O)N1CCN(c2nc(=O)n(-c3c(C(C)C)ccnc3S(C)(=O)=O)c3nc(-c4ccc(F)cc4Cl)c(F)cc23)[C@@H](C)C1` [Example 22, (S)-4-(4-acryloyl-2-methylpiperazin-1-yl)-7-(2-chloro-4-fluorophenyl)-6-fluoro-1-(4-isopropyl-2-(methylsulfonyl)pyridin-3-yl) pyridino[2,3-d]pyrimidin-2(1H)-one], inhibition (Homo sapiens, NCI-H358, 120 h) was half-maximal at 39 nM (IC50).
As for `C=CC(=O)N1CCN(c2nc(=O)n(-c3c(C(C)C)ccnc3S(C)(=O)=O)c3nc(-c4c(O)cccc4Cl)c(F)cc23)[C@@H](C)C1` [Example 27, 4-((S)-4-acryloyl-2-methylpiperazin-1-yl)-7-(2-chloro-6-hydroxyphenyl)-6-fluoro-1-(4-isopropyl-2-(methylsulfonyl)pyridin-3-yl) pyridino[2,3-d] pyrimidin-2(1H)-one], the IC50 (Homo sapiens, NCI-H358, 120 h) worked out at 30 nM.
Still for that read-out and setting: the result for `C=CC(=O)N1CCN(c2nc(=O)n(-c3c(C)cccc3S(=O)(=O)C3CC3)c3nc(-c4c(O)cccc4F)c(F)cc23)[C@@H](C)C1` [Example 7, 4-((S)-4-acryloyl-2-methylpiperazin-1-yl)-1-(2-(cyclopropylsulfonyl)-6-methylphenyl)-6-fluoro-7-(2-fluoro-6-hydroxyphenyl) pyridino [2,3-d] pyrimidin-2(1H)-one] reads 240 nM; that for `C=CC(=O)N1CCN(c2nc(=O)n(-c3c(C)cccc3S(=O)(=O)N(C)C)c3nc(-c4c(O)cccc4F)c(F)cc23)[C@@H](C)C1` [Example 14], 360 nM.
Molecule `C=CC(=O)N1CCN(c2nc(=O)n(-c3c(C(C)C)cccc3S(C)(=O)=O)c3nc(-c4ccccc4Cl)c(F)cc23)[C@@H](C)C1` [Example 30, (S)-4-(4-acryloyl-2-methylpiperazin-1-yl)-7-(2-chlorophenyl)-6-fluoro-1-(2-isopropyl-6-(methylsulfonyl)phenyl) pyridino[2,3-d]pyrimidin-2(1H)-one] had an IC50 of 18 nM.
Still for that read-out and setting: the result for `C=CC(=O)N1CCN(c2nc(=O)n(-c3c(CC)cccc3S(C)(=O)=O)c3nc(-c4c(O)cccc4F)c(F)cc23)[C@@H](C)C1` (single isomer, unassigned) [Example 5B] reads 11 nM.
As to `C=CC(=O)N1CCN(c2nc(=O)n(-c3c(C4CC4)cccc3S(C)(=O)=O)c3nc(-c4c(O)cccc4F)c(F)cc23)[C@@H](C)C1` [Example 6, 4-((S)-4-acryloyl-2-methylpiperazin-1-yl)-1-(2-cyclopropyl-6-(methylsulfonyl)phenyl)-6-fluoro-7-(2-fluoro-6-hydroxyphenyl) pyridino [2,3-d] pyrimidin-2(1H)-one], for the setting “Homo sapiens, NCI-H358, 120 h”, inhibition was half-maximal at 28 nM (IC50).
Same read-out and setting: the figure for `C=CC(=O)N1CCN(c2nc(=O)n(-c3c(S(C)(=O)=O)ccnc3C)c3nc(-c4c(O)cccc4F)c(F)cc23)[C@@H](C)C1` [Example 2, 4-((S)-4-acryloyl-2-methylpiperazin-1-yl)-6-fluoro-7-(2-fluoro-6-hydroxyphenyl)-1-(2-methyl-4-(methylsulfonyl)pyridin-3-yl) pyridino [2,3-d] pyrimidin-2 (1H)-one] is 540 nM.
Molecule `C=CC(=O)N1CCN(c2nc(=O)n(-c3c(CC)cccc3S(C)(=O)=O)c3nc(-c4c(O)cccc4F)c(F)cc23)[C@@H](C)C1` [Example 5A] showed an IC50 of 230 nM.
On the same count and under the same terms, the result for `C=CC(=O)N1CCN(c2nc(=O)n(-c3c(C4CC4)cccc3S(C)(=O)=O)c3nc(-c4c(O)cccc4F)c(F)cc23)[C@@H](C)C1` (single isomer, unassigned) [Example 6B] reads 15 nM.
On the same count and under the same terms, the result for `C=CC(=O)N1CCN(c2nc(=O)n(-c3c(C(C)C)ccnc3S(C)(=O)=O)c3nc(-c4ccccc4Cl)c(F)cc23)[C@@H](C)C1` (single isomer, unassigned) [Example 20A] reads 1500 nM.
Molecule `C=CC(=O)N1CCN(c2nc(=O)n(-c3c(C(C)C)ccnc3S(C)(=O)=O)c3nc(-c4ccccc4Cl)c(F)cc23)[C@@H](C)C1` [Example 20, (S)-4-(4-acryloyl-2-methylpiperazin-1-yl)-7-(2-chlorophenyl)-6-fluoro-1-(4-isopropyl-2-(methylsulfonyl)pyridin-3-yl) pyridino[2,3-d] pyrimidin-2(1H)-one] displayed an IC50 (Homo sapiens, NCI-H358, 120 h) of 23 nM.
The same measure, in the same setting: the result for `C=CC(=O)N1CCN(c2nc(=O)n(-c3ccccc3S(C)(=O)=O)c3nc(-c4c(O)cccc4F)c(F)cc23)C(CC(N)=O)C1` (stereo not drawn) [Example 61, 2-(4-acryloyl-1-(6-fluoro-7-(2-fluoro-6-hydroxyphenyl)-1-(2-(methylsulfonyl)phenyl)-2-oxo-1,2-dihydropyridino [2,3-d]pyrimidin-4-yl)piperazin-2-yl) acetamide] reads more than 10000 nM.

The values are drawn from patent US20230118795A1, “ARYL OR HETEROARYL PYRIDONE OR PYRIMIDINE DERIVATIVE, PREPARATION METHOD AND USE THEREOF” (SUZHOU ZELGEN BIOPHARMACEUTICALS CO., LTD., priority 2020, published 2023).
